Data from ChEMBL document CHEMBL1909046, “DrugMatrix in vitro pharmacology data”.

Experiments:
[1] = target: Beta-3 adrenergic receptor (Homo sapiens, UniProt P13945); experiment: DRUGMATRIX: Adrenergic beta3 radioligand binding (ligand: [125I] Cyanopindolol); format: cell membranes, Membrane; settings: hek293; Not Active = under 50% inhibition at 10 µM
[2] = DRUGMATRIX: Calcium Channel Type L, Dihydropyridine radioligand binding (ligand: [3H] Nitrendipine); format: cell membranes, Rattus norvegicus, Wistar, Cerebral cortex, Membrane; settings: Not Active = under 50% inhibition at 10 µM
[3] = target: 5-hydroxytryptamine receptor 2B (Homo sapiens, UniProt P41595); format: cell membranes, CHO-K1, Membrane; settings: cho-k1; also: in other assays of this panel Not Active means under 50% inhibition at 10 µM
5-hydroxytryptamine receptor 2B, sequence (P41595 whole entry): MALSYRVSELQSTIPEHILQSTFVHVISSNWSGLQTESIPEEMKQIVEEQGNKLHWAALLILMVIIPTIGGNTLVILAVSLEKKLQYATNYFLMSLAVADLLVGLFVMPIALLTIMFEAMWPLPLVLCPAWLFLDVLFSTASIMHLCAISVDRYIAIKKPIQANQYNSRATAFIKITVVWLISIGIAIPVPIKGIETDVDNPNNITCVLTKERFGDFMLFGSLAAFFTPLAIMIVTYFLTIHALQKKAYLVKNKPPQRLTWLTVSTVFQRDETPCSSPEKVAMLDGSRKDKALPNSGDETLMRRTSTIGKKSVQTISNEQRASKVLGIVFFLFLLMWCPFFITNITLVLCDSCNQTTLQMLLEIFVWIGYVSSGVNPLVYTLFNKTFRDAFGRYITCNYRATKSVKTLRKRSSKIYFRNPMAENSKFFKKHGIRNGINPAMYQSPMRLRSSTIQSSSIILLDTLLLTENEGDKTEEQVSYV

[4] = target: 5-hydroxytryptamine receptor 4 (Cavia porcellus, UniProt O70528); format: cell membranes, Dunkin-Hartley, Striatum, Membrane; also: in other assays of this panel Not Active means under 50% inhibition at 10 µM
5-hydroxytryptamine receptor 4, sequence (O70528 whole entry): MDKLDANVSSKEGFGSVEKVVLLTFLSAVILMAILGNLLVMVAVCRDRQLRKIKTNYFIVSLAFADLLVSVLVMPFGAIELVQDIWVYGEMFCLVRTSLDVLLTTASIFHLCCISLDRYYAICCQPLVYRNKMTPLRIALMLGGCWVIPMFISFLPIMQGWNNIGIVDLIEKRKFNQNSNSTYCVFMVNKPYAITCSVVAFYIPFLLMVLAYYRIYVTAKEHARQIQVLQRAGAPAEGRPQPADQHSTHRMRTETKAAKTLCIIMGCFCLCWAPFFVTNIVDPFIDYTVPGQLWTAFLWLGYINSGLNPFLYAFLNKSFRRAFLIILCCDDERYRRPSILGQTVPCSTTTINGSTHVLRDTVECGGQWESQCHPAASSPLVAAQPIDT

[5] = target: C-C chemokine receptor type 5 (Homo sapiens, UniProt P51681); format: cell membranes, HEK293, Membrane; settings: hek293; also: in other assays of this panel Not Active means under 50% inhibition at 10 µM
C-C chemokine receptor type 5, sequence (P51681 whole entry): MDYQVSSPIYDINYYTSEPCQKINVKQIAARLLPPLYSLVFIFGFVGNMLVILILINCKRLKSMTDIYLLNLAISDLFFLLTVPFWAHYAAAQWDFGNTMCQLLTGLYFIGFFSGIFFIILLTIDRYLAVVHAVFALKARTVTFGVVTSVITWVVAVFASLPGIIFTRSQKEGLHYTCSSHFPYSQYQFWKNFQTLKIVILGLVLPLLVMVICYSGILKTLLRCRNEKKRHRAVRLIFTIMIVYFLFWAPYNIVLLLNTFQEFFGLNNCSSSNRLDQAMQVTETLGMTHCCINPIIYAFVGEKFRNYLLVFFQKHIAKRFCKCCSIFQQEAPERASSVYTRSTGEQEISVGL

[6] = DRUGMATRIX: Leukotriene, BLT (LTB4) radioligand binding (ligand: [3H]LTB4); format: cell membranes, Membrane; settings: u-937; Not Active = under 50% inhibition at 10 µM
Leukotriene C4 synthase = target: T1, Leukotriene C4 synthase (Cavia porcellus, UniProt A6XA80); format: tissue-based, Lung;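 also: enzyme inhibition assay of leukotriene C4 synthase, using LTA4 as the substrate; in other assays of this panel Not Active means under 50% inhibition at 10 µM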
T1 sequence (A6XA80 whole entry): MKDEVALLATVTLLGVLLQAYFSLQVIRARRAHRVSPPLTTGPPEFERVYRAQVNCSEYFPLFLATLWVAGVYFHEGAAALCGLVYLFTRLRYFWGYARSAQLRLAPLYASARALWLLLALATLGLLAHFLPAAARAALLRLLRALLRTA

[7] = target: T2, Polyunsaturated fatty acid lipoxygenase ALOX15 (Oryctolagus cuniculus, UniProt P12530); experiment: biochemical; format: tissue-based, Reticulocytes
T2 sequence (P12530 whole entry): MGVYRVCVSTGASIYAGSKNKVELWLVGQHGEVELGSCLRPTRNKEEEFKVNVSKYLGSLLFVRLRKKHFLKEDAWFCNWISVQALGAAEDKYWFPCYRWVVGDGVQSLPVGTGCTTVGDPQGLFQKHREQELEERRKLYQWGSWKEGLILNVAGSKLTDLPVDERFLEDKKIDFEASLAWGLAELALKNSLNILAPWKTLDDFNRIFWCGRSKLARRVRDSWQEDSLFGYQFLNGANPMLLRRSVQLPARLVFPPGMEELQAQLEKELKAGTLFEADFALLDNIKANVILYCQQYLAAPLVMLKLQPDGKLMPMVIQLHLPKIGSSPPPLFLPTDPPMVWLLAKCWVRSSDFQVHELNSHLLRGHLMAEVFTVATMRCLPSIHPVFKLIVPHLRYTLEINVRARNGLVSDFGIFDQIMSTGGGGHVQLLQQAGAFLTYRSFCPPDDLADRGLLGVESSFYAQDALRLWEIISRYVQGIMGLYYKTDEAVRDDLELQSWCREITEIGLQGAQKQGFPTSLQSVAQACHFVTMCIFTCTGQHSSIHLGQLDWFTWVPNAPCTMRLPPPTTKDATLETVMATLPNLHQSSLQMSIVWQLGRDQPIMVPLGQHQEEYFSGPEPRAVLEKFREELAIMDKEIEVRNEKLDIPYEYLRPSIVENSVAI

Melanocortin receptor 5 = Melanocortin receptor 5 (Homo sapiens, UniProt P33032); format: cell membranes, Membrane; settings: hek293; also: in other assays of this panel Not Active means under 50% inhibition at 10 µM
Melanocortin receptor 5, sequence (P33032 whole entry): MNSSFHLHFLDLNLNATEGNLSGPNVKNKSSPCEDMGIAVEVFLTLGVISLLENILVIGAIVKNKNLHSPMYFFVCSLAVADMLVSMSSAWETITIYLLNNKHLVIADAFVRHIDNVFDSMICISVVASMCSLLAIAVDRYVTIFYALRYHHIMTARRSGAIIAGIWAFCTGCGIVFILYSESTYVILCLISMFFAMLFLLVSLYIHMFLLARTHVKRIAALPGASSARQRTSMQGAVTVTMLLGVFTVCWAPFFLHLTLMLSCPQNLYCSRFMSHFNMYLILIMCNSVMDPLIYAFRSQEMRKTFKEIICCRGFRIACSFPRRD

[8] = target: T3, Muscarinic acetylcholine receptor M2 (Homo sapiens, UniProt P08172); format: cell membranes, CHO-K1, Membrane; settings: cho-k1; also: in other assays of this panel Not Active means under 50% inhibition at 10 µM
T3 sequence (P08172 whole entry): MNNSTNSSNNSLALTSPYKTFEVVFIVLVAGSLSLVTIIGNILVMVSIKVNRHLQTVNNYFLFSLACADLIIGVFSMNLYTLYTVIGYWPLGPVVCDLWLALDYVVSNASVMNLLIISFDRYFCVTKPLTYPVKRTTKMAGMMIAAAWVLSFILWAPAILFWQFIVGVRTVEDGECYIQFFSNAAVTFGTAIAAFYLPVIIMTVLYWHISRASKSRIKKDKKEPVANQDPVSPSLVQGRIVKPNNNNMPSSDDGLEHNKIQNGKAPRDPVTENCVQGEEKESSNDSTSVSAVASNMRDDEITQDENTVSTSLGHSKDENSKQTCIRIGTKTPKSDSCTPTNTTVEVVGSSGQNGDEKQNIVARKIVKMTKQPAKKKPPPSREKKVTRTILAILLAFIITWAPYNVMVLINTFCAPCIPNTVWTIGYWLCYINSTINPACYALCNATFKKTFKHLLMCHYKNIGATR

[9] = target: Matrix metalloproteinase-9 (Homo sapiens, UniProt P14780); experiment: biochemical; format: cell-based
Matrix metalloproteinase-9, sequence (P14780 whole entry): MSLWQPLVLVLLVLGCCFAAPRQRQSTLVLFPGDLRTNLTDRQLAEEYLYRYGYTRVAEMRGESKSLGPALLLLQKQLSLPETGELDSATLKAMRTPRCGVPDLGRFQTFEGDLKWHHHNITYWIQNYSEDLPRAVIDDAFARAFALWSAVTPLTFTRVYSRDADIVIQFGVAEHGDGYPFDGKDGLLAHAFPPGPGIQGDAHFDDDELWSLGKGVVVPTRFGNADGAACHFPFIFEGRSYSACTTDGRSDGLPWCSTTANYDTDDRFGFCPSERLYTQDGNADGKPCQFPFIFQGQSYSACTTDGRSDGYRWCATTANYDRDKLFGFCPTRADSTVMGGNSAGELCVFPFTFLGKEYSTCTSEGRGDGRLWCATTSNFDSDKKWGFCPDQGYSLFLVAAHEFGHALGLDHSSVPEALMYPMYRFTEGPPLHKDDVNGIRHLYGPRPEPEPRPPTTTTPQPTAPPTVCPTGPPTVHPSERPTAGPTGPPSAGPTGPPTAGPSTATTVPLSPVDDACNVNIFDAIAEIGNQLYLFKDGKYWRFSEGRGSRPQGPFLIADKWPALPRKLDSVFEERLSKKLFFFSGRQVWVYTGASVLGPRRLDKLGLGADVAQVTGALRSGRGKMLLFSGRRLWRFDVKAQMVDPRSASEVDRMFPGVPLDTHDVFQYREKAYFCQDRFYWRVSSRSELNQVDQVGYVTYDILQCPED

Cytochrome P450 2C9 = Cytochrome P450 2C9 (Homo sapiens, UniProt P11712); settings: bti-tn-5b1-4; also: in other assays of this panel Not Active means under 50% inhibition at 10 µM
Cytochrome P450 2C9, sequence (P11712 whole entry): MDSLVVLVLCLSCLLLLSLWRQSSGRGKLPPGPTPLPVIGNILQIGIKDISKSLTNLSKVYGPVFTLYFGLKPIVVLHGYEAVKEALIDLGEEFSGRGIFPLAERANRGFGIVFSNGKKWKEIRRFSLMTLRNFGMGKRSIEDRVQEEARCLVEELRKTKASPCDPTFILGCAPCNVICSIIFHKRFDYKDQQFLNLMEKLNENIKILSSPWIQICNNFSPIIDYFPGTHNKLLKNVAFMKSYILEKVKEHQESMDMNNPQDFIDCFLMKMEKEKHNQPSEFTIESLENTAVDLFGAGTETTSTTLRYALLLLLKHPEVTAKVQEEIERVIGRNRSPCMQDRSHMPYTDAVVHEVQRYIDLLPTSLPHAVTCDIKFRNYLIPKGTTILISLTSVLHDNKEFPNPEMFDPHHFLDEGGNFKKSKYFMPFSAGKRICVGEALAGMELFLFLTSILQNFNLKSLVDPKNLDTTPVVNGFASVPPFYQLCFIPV

Beta-3 adrenergic receptor, sequence (P13945 whole entry): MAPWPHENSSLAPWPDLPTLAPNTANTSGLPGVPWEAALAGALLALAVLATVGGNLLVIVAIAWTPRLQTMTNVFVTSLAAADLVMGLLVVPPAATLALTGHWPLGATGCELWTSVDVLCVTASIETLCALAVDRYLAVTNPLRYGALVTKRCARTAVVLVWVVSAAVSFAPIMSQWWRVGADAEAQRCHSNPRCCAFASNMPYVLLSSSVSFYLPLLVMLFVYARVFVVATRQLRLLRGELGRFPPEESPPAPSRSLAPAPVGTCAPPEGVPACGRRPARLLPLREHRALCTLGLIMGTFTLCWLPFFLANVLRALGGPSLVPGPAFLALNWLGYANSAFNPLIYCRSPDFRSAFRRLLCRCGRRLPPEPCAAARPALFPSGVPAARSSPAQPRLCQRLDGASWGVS

| Compound | IC50 [1] | IC50 [2] | Ki [2] | IC50 [3] | IC50 [4] | IC50 [5] | IC50 [6] | Ki [6] | IC50 (Leukotriene C4 synthase) | IC50 ([7]; reticulocytes) | IC50 (Melanocortin receptor 5) | IC50 [8] | IC50 [9] | IC50 (Cytochrome P450 2C9) | Ki (Cytochrome P450 2C9) | IC50 ([7]; read-out: IC50) [µM] |
| --- | --- | --- | --- | --- | --- | --- | --- | --- | --- | --- | --- | --- | --- | --- | --- | --- |
| CC(C)C[C@H](NC(=O)[C@@H](O)[C@H](N)Cc1ccccc1)C(=O)O [UBENIMEX] | Not Active | Not Active | Not Active | Not Active | Not Active | Not Active | Not Active | Not Active | Not Active | Not Active | Not Active | Not Active | Not Active | Not Active | Not Active | – |
| Cc1onc(-c2ccccc2)c1-c1ccc(S(N)(=O)=O)cc1 [VALDECOXIB] | Not Active | Not Active | Not Active | Not Active | Not Active | Not Active | Not Active | Not Active | Not Active | Not Active | Not Active | Not Active | Not Active | Not Active | Not Active | – |
| CC[C@]1(O)C[C@@H]2CN(CCc3c([nH]c4ccccc34)[C@@](C(=O)OC)(c3cc4c(cc3OC)N(C)[C@H]3[C@@](O)(C(=O)OC)[C@H](OC(C)=O)[C@]5(CC)C=CCN6CC[C@]43[C@@H]65)C2)C1 [VINBLASTINE] | Not Active | Not Active | Not Active | Not Active | Not Active | Not Active | Not Active | Not Active | Not Active | – | Not Active | Not Active | Not Active | Not Active | Not Active | 5.04 |
| CC(=O)CC(c1ccccc1)c1c(O)c2ccccc2oc1=O (stereo not given) [WARFARIN] | Not Active | Not Active | Not Active | Not Active | Not Active | Not Active | Not Active | Not Active | Not Active | Not Active | Not Active | Not Active | Not Active | Not Active | Not Active | – |
| C[C@@H](N)[C@H]1CC[C@H](C(=O)Nc2ccncc2)CC1 [Y-27632] | Not Active | Not Active | Not Active | Not Active | Not Active | Not Active | Not Active | Not Active | Not Active | Not Active | Not Active | Not Active | Not Active | Not Active | Not Active | – |
| [Cl-].[Cl-].[Zn+2] [ZINC CHLORIDE] | Not Active | Not Active | Not Active | Not Active | Not Active | Not Active | Not Active | Not Active | Not Active | Not Active | Not Active | Not Active | Not Active | Not Active | Not Active | – |
